Legend:
[1] = tested on: 4T1 cells; experiment: Macrophage migration toward conditioned medium of emodin-treated tumor cells; assay type: cell-based, mouse; settings: increasing concentrations of emodin, 24 h treatment
Procedure: EO771 or 4T1 cells were treated with 0-50 μM emodin for 24 h. The cells were then washed multiple times with PBS, further cultured, and TCM was collected. The TCM was placed in the bottom chamber of transwell inserts, and 2×10^5 macrophages were seeded into the top chamber in SF DMEM. The cells were incubated at 37° C. with 5% CO2 for 4 h. The membranes were then fixed with 4% paraformaldehyde for 10 min. The cells were removed from the top chamber using cotton swabs, and the cells on the bottom chamber were stained with DAPI (1 μg/mL). The inserts were then cut out, mounted onto slides, and imaged under a Nikon Eclipse E-600 fluorescence microscope (Nikon Inc. Melville, N.Y.) at 20× magnification (5 fields/insert). DAPI stained cells were quantified using ImagePro Plus software.

[2] = tested on: mouse peritoneal macrophages; experiment: Whole genome microarray, macrophages stimulated with LPS/IFNγ; assay type: cell-based
Procedure: Three milliliters of 4% Thioglycolate solution was injected intraperitoneally into 8-12 week old C57BL/6 mice. Three days later, macrophages were collected by lavaging the peritoneal cavity with PBS. The cells were then resuspended in DMEM containing 10% FBS. After 2 h, non-adherent cells were washed away with PBS and the macrophages were cultured overnight in serum free DMEM. The macrophages were then treated with DMEM containing IL4 (10 ng/ml, BioAbChem Inc. Ladson, S.C.) or LPS (100 ng/ml, Sigma-Aldrich) and IFNγ (20 ng/ml, BioAbChem Inc) with or without emodin. Emodin was purchased from Nanjing Langze Medicine and Technology Co. Ltd (Nanjing, China) and dissolved in DMSO at a concentration of 10 mg/ml as a stock solution.
Microarray analysis was carried out as described previously, with a few alterations. Macrophages were stimulated with IL4 for 6 h or LPS+IFNγ for 24 h with or without emodin (50 μM). Samples were prepared in biological replicates of 4. Cells were lysed with Qiazol and RNA was extracted using Qiagen's miRNeasy kit. Agilent's 2100 Bioanalyzer was used to determine the quality and quantity of the RNA. […] The RNA was amplified and labeled with Agilent's Low Input Quick Amp Labeling Kit (Agilent) according to the manufacturer's instructions. Labeled RNA was then purified using Qiagen's RNeasy Mini Kit (Qiagen, Valencia, Calif.) and dye incorporation and cRNA yield were assessed. Labeled samples were hybridized to Agilent Whole Mouse Genome Microarrays 8×60K (Agilent) using Agilent's Gene Expression Hybridization Kit (Agilent) according to the manufacturer's instructions. Microarray analysis was performed using an Agilent DNA Microarray Scanner System (Cat. # G2565CA).
For microarray analysis, data was extracted from images with Feature Extractor Software version 10.7.3.1 (Agilent); background correction using detrending algorithms was performed. Subsequently, background-corrected data was uploaded into GeneSpring GX version 11.5.1 for analysis. In this process, data was log 2 transformed, quantile normalized and baseline transformed using the median of all samples. […] Differentially expressed genes were determined by analysis of the data using the Mann-Whitney unpaired statistics. A cutoff p-value of 0.05 and a fold change cutoff value of 2.0 were used to filter the data. Pathway analysis was performed using Ingenuity Pathway Analysis software.

[3] = tested on: IRF4; experiment: IRF4 protein by western blotting; assay type: cell-based, mouse; settings: IL4, emodin 0-50 μM, 6 h
Procedure: Following stimulation with IL4 or LPS+IFNγ with or without emodin for varying periods, macrophages were lysed with cell signaling lysis buffer (Millipore) for whole cell lysates. Cytoplasmic and nuclear extracts were prepared using the Epiquik Nuclear Extraction kit (Epigentek, Farmingdale, N.Y.). Total protein was separated on 4-20% Tris-glycine pre-cast gels (Pierce) and transferred onto Nitrocellulose membranes (Bio-Rad Life Science, Hercules, Calif.). The membranes were then probed with HRP conjugated secondary antibodies, and signals were detected using Pierce ECL Western Blotting Substrate (Pierce).

[4] = tested on: mouse peritoneal macrophages; experiment: Phagocytosis assay (FITC-labeled E. coli bioparticles); assay type: cell-based
Procedure: Macrophages were seeded into a 96-well plate (2×10^5 cells/well) and were stimulated with IL4 or LPS+IFNγ for 24 h with or without emodin. Phagocytotic activity was measured using a Vybrant Phagocytosis assay kit (Molecular Probes). The medium was removed and the cells were washed with PBS. The fluorescent BioParticle suspension was added to the cells and incubated up to 6 h. After the indicated time, the BioParticle suspension was removed, any extracellular fluorescence was quenched with trypan blue, and the intracellular fluorescence was detected using a Spectramax M5 microplate reader (Molecular Devices, Sunnyvale, Calif.).

[5] = tested on: Breast tumor cells from MMTV-PyMT mice; experiment: Gene expression in ex vivo breast tumor cells (qPCR); assay type: cell-based, mouse

SMILES: Cc1cc(O)c2c(c1)C(=O)c1cc(O)cc(O)c1C2=O [emodin]
- macrophage migration toward TCM from emodin-treated tumor cells [1]: decrease in macrophage migration
- fold reduction of LPS/IFNγ induced expression ([2]; CD86, microarray, emodin 50 μM): 7.74 fold
- fold change of expression under LPS/IFNγ stimulation ([2]; CXCL2, microarray): −10.31 fold
- fold change of expression under LPS/IFNγ stimulation ([2]; CXCL10, microarray): −2.01 fold
- fold reduction of LPS/IFNγ induced expression ([2]; H2-Oa, microarray, emodin 50 μM): 3.85 fold
- fold reduction of LPS/IFNγ induced expression ([2]; H2-Ob, microarray, emodin 50 μM): 6.42 fold
- fold reduction of LPS/IFNγ induced expression ([2]; IL1β, microarray, emodin 50 μM): 13.64 fold
- fold reduction of LPS/IFNγ induced expression ([2]; IL6, microarray, emodin 50 μM): 3.25 fold
- genes changed by emodin in both groups ([2]; LPS/IFNγ and IL4 stimulation, microarray): 1,575 genes
- genes whose expression was changed by emodin in at least one of the conditions ([2]; LPS/IFNγ or IL4 stimulation, microarray): ~6,500 genes
- genes on which emodin had inverse effects under the two different stimuli ([2]; LPS/IFNγ vs IL4, microarray): 86 genes
- fold reduction of LPS/IFNγ induced expression ([2]; MMP2, microarray, emodin 50 μM): 11.86 fold
- fold reduction of LPS/IFNγ induced expression ([2]; MMP9, microarray, emodin 50 μM): 28.87 fold
- fold increase of expression under LPS/IFNγ stimulation ([2]; Mrc1, microarray): 8.72 fold
- fold change of expression under LPS/IFNγ stimulation ([2]; TNFα, microarray): −2.47 fold
- fold reduction of LPS/IFNγ induced expression ([2]; TNFα, microarray, emodin 50 μM): 2.01 fold
- fold increase of expression under LPS/IFNγ stimulation ([2]; YM1, microarray): 2.04 fold
- LPS/IFNγ responsive genes whose induced changes were attenuated ([2]; emodin 50 μM, LPS/IFNγ 24 h): about 31%
- Em + LPS vs. LPS/IFN (gene expression) ([2]; gene CCL2, microarray, LPS/IFNγ 24 h, emodin 50 μM): −12.06
- Em + LPS vs. LPS/IFN (gene expression) ([2]; gene CCL5, microarray, LPS/IFNγ 24 h, emodin 50 μM): −5.41
- Em + LPS vs. LPS/IFN (gene expression) ([2]; gene CD86, microarray, LPS/IFNγ 24 h, emodin 50 μM): −7.74
- Em + LPS vs. LPS/IFN (gene expression) ([2]; gene CXCL2, microarray, LPS/IFNγ 24 h, emodin 50 μM): −2.47
- Em + LPS vs. LPS/IFN (gene expression) ([2]; gene CXCL3, microarray, LPS/IFNγ 24 h, emodin 50 μM): −2.47
- Em + LPS vs. LPS/IFN (gene expression) ([2]; gene CXCL10, microarray, LPS/IFNγ 24 h, emodin 50 μM): −10.31
- Em + LPS vs. LPS/IFN (gene expression) ([2]; gene FPR2, microarray, LPS/IFNγ 24 h, emodin 50 μM): −33.81
- Em + LPS vs. LPS/IFN (gene expression) ([2]; gene H2-Oa, microarray, LPS/IFNγ 24 h, emodin 50 μM): −3.85
- Em + LPS vs. LPS/IFN (gene expression) ([2]; gene H2-Ob, microarray, LPS/IFNγ 24 h, emodin 50 μM): −6.42
- Em + LPS vs. LPS/IFN (gene expression) ([2]; gene IFIT1, microarray, LPS/IFNγ 24 h, emodin 50 μM): −11.94
- Em + LPS vs. LPS/IFN (gene expression) ([2]; gene IL1B, microarray, LPS/IFNγ 24 h, emodin 50 μM): −13.64
- Em + LPS vs. LPS/IFN (gene expression) ([2]; gene IL1RL1, microarray, LPS/IFNγ 24 h, emodin 50 μM): −10.78
- Em + LPS vs. LPS/IFN (gene expression) ([2]; gene IL6, microarray, LPS/IFNγ 24 h, emodin 50 μM): −3.25
- Em + LPS vs. LPS/IFN (gene expression) ([2]; gene IL12A, microarray, LPS/IFNγ 24 h, emodin 50 μM): −4.93
- Em + LPS vs. LPS/IFN (gene expression) ([2]; gene IL12B, microarray, LPS/IFNγ 24 h, emodin 50 μM): 2.47
- Em + LPS vs. LPS/IFN (gene expression) ([2]; gene IRF5, microarray, LPS/IFNγ 24 h, emodin 50 μM): −2.11
- Em + LPS vs. LPS/IFN (gene expression) ([2]; gene IRF7, microarray, LPS/IFNγ 24 h, emodin 50 μM): −4.20
- Em + LPS vs. LPS/IFN (gene expression) ([2]; gene MMP2, microarray, LPS/IFNγ 24 h, emodin 50 μM): −11.86
- Em + LPS vs. LPS/IFN (gene expression) ([2]; gene MMP9, microarray, LPS/IFNγ 24 h, emodin 50 μM): −28.87
- Em + LPS vs. LPS/IFN (gene expression) ([2]; gene MYH3, microarray, LPS/IFNγ 24 h, emodin 50 μM): −7.76
- Em + LPS vs. LPS/IFN (gene expression) ([2]; gene Mrc1, microarray, LPS/IFNγ 24 h, emodin 50 μM): 8.72
- Em + LPS vs. LPS/IFN (gene expression) ([2]; gene NOS2, microarray, LPS/IFNγ 24 h, emodin 50 μM): −3.77
- Em + LPS vs. LPS/IFN (gene expression) ([2]; gene PTGS2, microarray, LPS/IFNγ 24 h, emodin 50 μM): −3.99
- Em + LPS vs. LPS/IFN (gene expression) ([2]; gene RASGRP1, microarray, LPS/IFNγ 24 h, emodin 50 μM): −8.52
- Em + LPS vs. LPS/IFN (gene expression) ([2]; gene SELL, microarray, LPS/IFNγ 24 h, emodin 50 μM): −10.45
- Em + LPS vs. LPS/IFN (gene expression) ([2]; gene SOCS1, microarray, LPS/IFNγ 24 h, emodin 50 μM): −5.34
- Em + LPS vs. LPS/IFN (gene expression) ([2]; gene TLR4, microarray, LPS/IFNγ 24 h, emodin 50 μM): −4.71
- Em + LPS vs. LPS/IFN (gene expression) ([2]; gene TNF, microarray, LPS/IFNγ 24 h, emodin 50 μM): −2.01
- IRF4 protein production [3]: dose dependently inhibited
- inhibition of bioparticle uptake ([4]; IL4 or LPS/IFNγ stimulated macrophages, emodin 50 μM 24 h): ~2 fold
- phagocytic activity of naïve cells ([4]; emodin alone, 6 h time point): increase phagocytic activity
- expression of CCL2, CSF1, CD90, N-cadherin, vimentin, FoxC2 and KLF4 [5]: significantly suppressed

Reference: US9795570B2, “Modulation of macrophage phenotype by emodin” (University of South Carolina, priority 2016, dated 2017)
